Test results published in patent EP0195841A1, “Quinolinecarboxylic acid derivatives and process for their preparation” (KYORIN PHARMACEUTICAL CO., LTD., priority 1985, dated 1986).
Like-named read-outs stand apart in the source and are kept apart here.

Legend:
Test in all cases: Antibacterial spectra, MIC by standard method of Japan Society of Chemotherapy
Assay type in all cases: cell-based
[1] = test system: Bacillus subtilis PCI 219; details: 10^6 cells/ml; for MIC: PCI219, Gram +, read-out: Minimum Inhibitory Concentration; for ratio of activity per that of Ciprofloxacin (bracketed number): Gram +
[2] = test system: Staphylococcus aureus 209 P; details: Gram +, 10^6 cells/ml; for MIC: read-out: Minimum Inhibitory Concentration
[3] = test system: S. aureus IID 670 (Terajima); details: 10^6 cells/ml; for ratio of activity per that of Ciprofloxacin (bracketed number): Gram +; for MIC: Staphylococcus aureus, IID670, Gram +, read-out: Minimum Inhibitory Concentration
S. epidermidis IID 866 = details: 10^6 cells/ml; for ratio of activity per that of Ciprofloxacin (bracketed number): Gram +; for MIC: Staphylococcus epidermidis, IID866, Gram +, read-out: Minimum Inhibitory Concentration
[4] = test system: Streptococcus pyogenes IID 692; details: 10^6 cells/ml; for ratio of activity per that of Ciprofloxacin (bracketed number): Gram +; for MIC: IID692, Gram +, read-out: Minimum Inhibitory Concentration
[5] = test system: S. pyogenes IID 689 (S-8); details: 10^6 cells/ml; for ratio of activity per that of Ciprofloxacin (bracketed number): Gram +; for MIC: Streptococcus pyogenes, IID689, Gram +, read-out: Minimum Inhibitory Concentration
S. faecalis IID 682 = details: 10^6 cells/ml; for MIC: Enterococcus faecalis, IID682, Gram +, read-out: Minimum Inhibitory Concentration; for ratio of activity per that of Ciprofloxacin (bracketed number): Gram +
S. pneumoniae 2054 = details: Gram +, 10^6 cells/ml; for MIC: Streptococcus pneumoniae, read-out: Minimum Inhibitory Concentration
E. coli NIHJ JC-2 = details: E. coli NIHJ JC-2, Gram −, 10^6 cells/ml; for MIC: Escherichia coli, NIHJJC2, read-out: Minimum Inhibitory Concentration
E. coli ATCC 10536 = details: 10^6 cells/ml; for MIC: Escherichia coli, ATCC10536, Gram −, read-out: Minimum Inhibitory Concentration; for ratio of activity per that of Ciprofloxacin (bracketed number): Gram −
[6] = test system: Proteus vulgaris IFO 3167
P. mirabilis IID 994 = details: 10^6 cells/ml; for ratio of activity per that of Ciprofloxacin (bracketed number): Gram −; for MIC: Proteus mirabilis, IID994, Gram −, read-out: Minimum Inhibitory Concentration
P. morganii IID 602 = details: 10^6 cells/ml; for MIC: Morganella morganii, IID602, Gram −, read-out: Minimum Inhibitory Concentration; for ratio of activity per that of Ciprofloxacin (bracketed number): Gram −
[7] = test system: Klebsiella pneumoniae KY 6445; details: 10^6 cells/ml; for ratio of activity per that of Ciprofloxacin (bracketed number): Gram −; for MIC: KY6445, Gram −, read-out: Minimum Inhibitory Concentration
[8] = test system: Enterobacter cloacae IID 977; details: 10^6 cells/ml; for ratio of activity per that of Ciprofloxacin (bracketed number): Gram −; for MIC: IID977, Gram −, read-out: Minimum Inhibitory Concentration
[9] = test system: Citrobacter freundii IID 976; details: 10^6 cells/ml; for ratio of activity per that of Ciprofloxacin (bracketed number): Gram −; for MIC: IID976, Gram −, read-out: Minimum Inhibitory Concentration
[10] = test system: Serratia marcescens IID 618; details: 10^6 cells/ml; for ratio of activity per that of Ciprofloxacin (bracketed number): Gram −; for MIC: IID618, Gram −, read-out: Minimum Inhibitory Concentration
Shigella sonnei IID 969 = details: 10^6 cells/ml; for ratio of activity per that of Ciprofloxacin (bracketed number): Gram −; for MIC: IID969, Gram −, read-out: Minimum Inhibitory Concentration
Experimental: Experiment 1. Antibacterial spectra
Antibacterial activity was determined with the standard method recommended by Japan Society of Chemotherapy.

[11] = test system: Salmonella enteritidis IID 604; details: Gram −, 10^6 cells/ml; for MIC: Salmonella enterica, read-out: Minimum Inhibitory Concentration
[12] = test system: Pseudomonas aeruginosa V-1; details: 10^6 cells/ml; for ratio of activity per that of Ciprofloxacin (bracketed number): Gram −; for MIC: V1, Gram −, read-out: Minimum Inhibitory Concentration
[13] = test system: Pseudomonas aeruginosa IFO 12689; details: 10^6 cells/ml; for ratio of activity per that of Ciprofloxacin (bracketed number): Gram −; for MIC: IFO12689, Gram −, read-out: Minimum Inhibitory Concentration
[14] = test system: Yersinia enterocolitica IID 981; details: 10^6 cells/ml; for ratio of activity per that of Ciprofloxacin (bracketed number): Gram −; for MIC: IID981, Gram −, read-out: Minimum Inhibitory Concentration
[15] = test system: Acinetobacter anitratus IID 876; details: 10^6 cells/ml; for MIC: Acinetobacter calcoaceticus, IID876, Gram −, read-out: Minimum Inhibitory Concentration; for ratio of activity per that of Ciprofloxacin (bracketed number): Gram −
[16] = test system: Alcaligenes faecalis 0104002; details: Gram −, 10^6 cells/ml; for MIC: read-out: Minimum Inhibitory Concentration
[17] = test system: Bacteroides fragilis GM 7000; details: 10^6 cells/ml; for MIC: GM7000, Gram −, read-out: Minimum Inhibitory Concentration; for ratio of activity per that of Ciprofloxacin (bracketed number): Gram −
[18] = test system: Bacteroides fragilis 0558; details: Gram −, 10^6 cells/ml; for MIC: read-out: Minimum Inhibitory Concentration
[19] = test system: Bacteroides fragilis 25285; details: Gram −, 10^6 cells/ml; for MIC: read-out: Minimum Inhibitory Concentration
[20] = IFO3167, Proteus vulgaris IFO 3167, Gram −, 10^6 cells/ml, read-out: Minimum Inhibitory Concentration
[21] = Proteus vulgaris IFO 3167, Gram −, 10^6 cells/ml

O=C(O)c1cn(C2CC2)c2c(Cl)c(N3CCNCC3)c(F)cc2c1=O [Example 25, 8-Chloro-l-cyclopropyl-6-fluoro-l,4-dihydro-4-oxo-7-(1-piperazinyl)quinoline-3-carboxylic acid]
2: ratio of activity per that of Ciprofloxacin (bracketed number) [4] | ratio of activity per that of Ciprofloxacin (bracketed number) [5] | ratio of activity per that of Ciprofloxacin (bracketed number) (E. coli ATCC 10536) | ratio of activity per that of Ciprofloxacin (bracketed number) [8] | ratio of activity per that of Ciprofloxacin (bracketed number) [11] | ratio of activity per that of Ciprofloxacin (bracketed number) [14] | ratio of activity per that of Ciprofloxacin (bracketed number) [16]
0.5: ratio of activity per that of Ciprofloxacin (bracketed number) [9] | ratio of activity per that of Ciprofloxacin (bracketed number) [15]
0.02 µg/mL: MIC [16]
0.39 µg/mL: MIC [4] | MIC (S. pneumoniae 2054) | MIC [13] | MIC [17]
4: ratio of activity per that of Ciprofloxacin (bracketed number) [3] | ratio of activity per that of Ciprofloxacin (bracketed number) (S. pneumoniae 2054) | ratio of activity per that of Ciprofloxacin (bracketed number) [12]
0.1 µg/mL: MIC [3]
0.0125 µg/mL: MIC [1] | MIC (P. mirabilis IID 994) | MIC (P. morganii IID 602) | MIC [7] | MIC [9] | MIC [11]
0.2 µg/mL: MIC [5] | MIC (S. faecalis IID 682) | MIC [18] | MIC [19]
1: ratio of activity per that of Ciprofloxacin (bracketed number) (E. coli NIHJ JC-2) | ratio of activity per that of Ciprofloxacin (bracketed number) [6, 21] | ratio of activity per that of Ciprofloxacin (bracketed number) (P. mirabilis IID 994) | ratio of activity per that of Ciprofloxacin (bracketed number) [7] | ratio of activity per that of Ciprofloxacin (bracketed number) (Shigella sonnei IID 969) | ratio of activity per that of Ciprofloxacin (bracketed number) [13]
0.05 µg/mL: MIC [2] | MIC (S. epidermidis IID 866) | MIC [12] | MIC [15]
≤ 0.006 µg/mL: MIC (E. coli NIHJ JC-2) | MIC (E. coli ATCC 10536) | MIC [6, 20] | MIC (Shigella sonnei IID 969)
8: ratio of activity per that of Ciprofloxacin (bracketed number) [2] | ratio of activity per that of Ciprofloxacin (bracketed number) (S. epidermidis IID 866) | ratio of activity per that of Ciprofloxacin (bracketed number) [17]
0.025 µg/mL: MIC [8] | MIC [10] | MIC [14]
16: ratio of activity per that of Ciprofloxacin (bracketed number) [10] | ratio of activity per that of Ciprofloxacin (bracketed number) [18] | ratio of activity per that of Ciprofloxacin (bracketed number) [19]

CN1CCN(c2c(F)cc3c(=O)c(C(=O)O)cn(C4CC4)c3c2Cl)CC1 [Example 27, 8-Chloro-1-cyclopropyl-6-fluoro-1,4-dihydro-7-(4-methyl-l-piperazinyl)4-oxoquinoline-3-carboxylic acid]
0.05 µg/mL: MIC (P. morganii IID 602) | MIC [8] | MIC [10] | MIC [11] | MIC [14]
16: ratio of activity per that of Ciprofloxacin (bracketed number) [17]
4: ratio of activity per that of Ciprofloxacin (bracketed number) [1] | ratio of activity per that of Ciprofloxacin (bracketed number) [2] | ratio of activity per that of Ciprofloxacin (bracketed number) (S. epidermidis IID 866) | ratio of activity per that of Ciprofloxacin (bracketed number) [4]
0.2 µg/mL: MIC [4] | MIC [5] | MIC [12] | MIC [17]
0.1 µg/mL: MIC [2] | MIC [3] | MIC (S. epidermidis IID 866) | MIC [18] | MIC [19]
1.56 µg/mL: MIC [13]
0.25: ratio of activity per that of Ciprofloxacin (bracketed number) [9] | ratio of activity per that of Ciprofloxacin (bracketed number) [13]
≤ 0.006 µg/mL: MIC (E. coli NIHJ JC-2)
0.025 µg/mL: MIC (P. mirabilis IID 994) | MIC [7] | MIC [9] | MIC [15]
2: ratio of activity per that of Ciprofloxacin (bracketed number) (S. faecalis IID 682)
1: ratio of activity per that of Ciprofloxacin (bracketed number) (E. coli NIHJ JC-2) | ratio of activity per that of Ciprofloxacin (bracketed number) (E. coli ATCC 10536) | ratio of activity per that of Ciprofloxacin (bracketed number) (P. morganii IID 602) | ratio of activity per that of Ciprofloxacin (bracketed number) [8] | ratio of activity per that of Ciprofloxacin (bracketed number) [12] | ratio of activity per that of Ciprofloxacin (bracketed number) [14] | ratio of activity per that of Ciprofloxacin (bracketed number) [16]
32: ratio of activity per that of Ciprofloxacin (bracketed number) [18] | ratio of activity per that of Ciprofloxacin (bracketed number) [19]
0.5: ratio of activity per that of Ciprofloxacin (bracketed number) [6, 21] | ratio of activity per that of Ciprofloxacin (bracketed number) (P. mirabilis IID 994) | ratio of activity per that of Ciprofloxacin (bracketed number) [7] | ratio of activity per that of Ciprofloxacin (bracketed number) (Shigella sonnei IID 969) | ratio of activity per that of Ciprofloxacin (bracketed number) [11]
0.39 µg/mL: MIC (S. faecalis IID 682) | MIC (S. pneumoniae 2054) | MIC [16]
0.0125 µg/mL: MIC [1] | MIC (E. coli ATCC 10536) | MIC ([6]; Proteus vulgaris, IFO3167, read-out: Minimum Inhibitory Concentration) | MIC (Shigella sonnei IID 969)

O=C(O)c1cn(C2CC2)c2c(F)c(N3CCNCC3)c(F)cc2c1=O [Reference- 1, 1-Cyclopropyl-6,8-difluoro-1,4-dihydro-4-oxo-7-(1-piperazinyl)quinoline-3-carboxylic acid, reference compound]
0.02 µg/mL: MIC [16]
0.78 µg/mL: MIC [4] | MIC (S. faecalis IID 682) | MIC [18] | MIC [19]
4: ratio of activity per that of Ciprofloxacin (bracketed number) [10] | ratio of activity per that of Ciprofloxacin (bracketed number) [18]
0.1 µg/mL: MIC [10]
0.2 µg/mL: MIC [2] | MIC [3] | MIC (S. epidermidis IID 866) | MIC [12]
0.5: ratio of activity per that of Ciprofloxacin (bracketed number) [9]
0.39 µg/mL: MIC [13]
≤ 0.006 µg/mL: MIC [6, 20] | MIC (P. mirabilis IID 994)
1: ratio of activity per that of Ciprofloxacin (bracketed number) [4] | ratio of activity per that of Ciprofloxacin (bracketed number) [5] | ratio of activity per that of Ciprofloxacin (bracketed number) (S. faecalis IID 682) | ratio of activity per that of Ciprofloxacin (bracketed number) (E. coli NIHJ JC-2) | ratio of activity per that of Ciprofloxacin (bracketed number) (E. coli ATCC 10536) | ratio of activity per that of Ciprofloxacin (bracketed number) [6, 21] | ratio of activity per that of Ciprofloxacin (bracketed number) [7] | ratio of activity per that of Ciprofloxacin (bracketed number) (Shigella sonnei IID 969) | ratio of activity per that of Ciprofloxacin (bracketed number) [12] | ratio of activity per that of Ciprofloxacin (bracketed number) [13]
1.56 µg/mL: MIC [17]
0.0125 µg/mL: MIC (E. coli ATCC 10536) | MIC [9] | MIC [11] | MIC [15]
0.025 µg/mL: MIC [1] | MIC (P. morganii IID 602) | MIC [8] | MIC [14]
2: ratio of activity per that of Ciprofloxacin (bracketed number) [1] | ratio of activity per that of Ciprofloxacin (bracketed number) [2] | ratio of activity per that of Ciprofloxacin (bracketed number) [3] | ratio of activity per that of Ciprofloxacin (bracketed number) (S. epidermidis IID 866) | ratio of activity per that of Ciprofloxacin (bracketed number) (S. pneumoniae 2054) | ratio of activity per that of Ciprofloxacin (bracketed number) (P. mirabilis IID 994) | ratio of activity per that of Ciprofloxacin (bracketed number) (P. morganii IID 602) | ratio of activity per that of Ciprofloxacin (bracketed number) [8] | ratio of activity per that of Ciprofloxacin (bracketed number) [14] | ratio of activity per that of Ciprofloxacin (bracketed number) [15] | ratio of activity per that of Ciprofloxacin (bracketed number) [16] | ratio of activity per that of Ciprofloxacin (bracketed number) [17]
